Source: patent US20230009608A1, “GRK2 INHIBITORS AND USES THEREOF” (Cygnal Therapeutics, Inc., priority 2020, published 2023)

What was measured:
GRK2 = molecular target: T1, GRK2 (Homo sapiens, UniProt P25098); assay: ADPGlo GRK2 Inhibition Assay (Example 8); type: biochemical; conditions: Enzyme Assay A, ADPGlo (Example 8); read-out: A: Enzymatic GRK2: IC50 (nM) (Example 8)
T1 construct: purchased SignalChem A14-10G
T1 sequence (P25098 1-689): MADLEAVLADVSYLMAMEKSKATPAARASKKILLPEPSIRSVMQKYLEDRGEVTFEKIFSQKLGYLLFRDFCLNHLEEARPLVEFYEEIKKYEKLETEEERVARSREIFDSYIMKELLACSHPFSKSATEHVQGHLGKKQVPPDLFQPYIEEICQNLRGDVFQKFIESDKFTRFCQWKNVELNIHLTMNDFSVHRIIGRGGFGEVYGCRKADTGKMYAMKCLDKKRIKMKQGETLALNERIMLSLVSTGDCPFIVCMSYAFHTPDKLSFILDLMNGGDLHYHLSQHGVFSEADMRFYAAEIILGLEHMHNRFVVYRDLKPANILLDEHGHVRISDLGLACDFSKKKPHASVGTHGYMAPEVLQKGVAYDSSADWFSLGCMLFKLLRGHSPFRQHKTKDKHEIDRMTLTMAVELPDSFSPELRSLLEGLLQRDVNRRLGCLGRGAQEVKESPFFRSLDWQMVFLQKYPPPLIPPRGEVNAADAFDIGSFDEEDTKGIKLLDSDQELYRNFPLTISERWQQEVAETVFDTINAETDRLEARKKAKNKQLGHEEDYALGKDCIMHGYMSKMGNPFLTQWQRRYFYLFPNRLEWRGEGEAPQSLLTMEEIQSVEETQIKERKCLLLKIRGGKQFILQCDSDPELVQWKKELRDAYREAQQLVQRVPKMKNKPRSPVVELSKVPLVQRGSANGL
Procedure, shortened: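 GRK2 (15 nM 2× enzyme solution) was preincubated 15 min with compound, then reacted 180 min at room temperature with 2× mix of 20 μM ATP plus GRKtide in HEPES pH 7.5, MgCl2, Tween-20, DTT. ADP was detected by ADP-Glo luminescence. Percent inhibition was normalised to enzyme and no-enzyme controls, with dose-response curves from threefold dilutions starting at 100 μM.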

[1] = tested on: PAXF1657 control empty vector cell line; assay: 7-day proliferation assay, PAXF1657 control empty vector cell line (Example 9); type: cell-based; conditions: 168 h; Cell Line: PAXF1657 empty vector (EV) cell line; 7-day; read-out: C: 7-day proliferation assay: IC50 GeoMean
Procedure, shortened: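 PAXF1657 pancreatic cancer cells (GRK2-overexpressing vs empty vector; CRISPR GRK2 knockout vs non-targeting control) were seeded at 500 cells/well in RPMI1640/10% FBS, then given a 10-point series, 30 μM-0.0002 μM in 0.3% DMSO. Medium and compound were refreshed after 3 days; CellTiter-Glo luminescence was read at day 7.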

## Cn1c(CNc2cccc(C(=O)NCc3cccc(OCC(F)F)c3)c2)nnc1-c1ccncn1
GRK2
  IC50: 43 nM
[1]
  IC50: > 10 µM

## Cn1c(CNc2cccc(C(=O)NCc3cccc4c3OCCO4)c2)nnc1-c1ccncn1
GRK2
  IC50: 15 nM
[1]
  IC50: 2.07 µM

## Cc1ccnc(CNC(=O)c2cccc(NCc3nnc(-c4ccncn4)n3C)c2)c1
GRK2
  IC50: 430 nM
[1]
  IC50: > 10 µM

## Cn1c(CNc2cccc(C(=O)NCc3cccnc3)c2)nnc1-c1ccncn1
GRK2
  IC50: 540 nM
[1]
  IC50: > 10 µM

## CC(NC(=O)c1cccc(NCc2nnc(-c3ccncn3)n2C)c1)c1cnn(C)c1 (centres unmarked)
GRK2
  IC50: 17 nM
[1]
  IC50: 0.19 µM

## Cn1c(CNc2cccc(C(=O)NCc3cccc4ncccc34)c2)nnc1-c1ccncn1
GRK2
  IC50: 11 nM
[1]
  IC50: > 10 µM

## Cc1nn(C)c(C)c1CNC(=O)c1cccc(NCc2nnc(-c3ccncn3)n2C)c1
GRK2
  IC50: 26 nM
[1]
  IC50: > 10 µM

## Cc1noc(C)c1CNC(=O)c1cccc(NCc2nnc(-c3ccncn3)n2C)c1
GRK2
  IC50: 19 nM
[1]
  IC50: 0.173 µM

## Cc1nc(C)c(CNC(=O)c2cccc(NCc3nnc(-c4ccncn4)n3C)c2)s1
GRK2
  IC50: 26 nM
[1]
  IC50: > 10 µM

## CC(NC(=O)c1cccc(NCc2nnc(-c3ccncn3)n2C)c1)c1ccn(C)n1 (centres unmarked)
GRK2
  IC50: 27 nM
[1]
  IC50: 2.15 µM

## COc1cc(F)cc(CNC(=O)c2cccc(NCc3nnc(-c4ccncn4)n3C)c2)c1
GRK2
  IC50: 54 nM
[1]
  IC50: > 10 µM

## Cc1ccccc1C(CO)NC(=O)c1cccc(NCc2nnc(-c3ccncn3)n2C)c1 (centres unmarked)
GRK2
  IC50: 33 nM
[1]
  IC50: 8.66 µM

## Cn1c(CNc2cccc(C(=O)NCc3ccc4c(c3)CCO4)c2)nnc1-c1ccncn1
GRK2
  IC50: 16 nM
[1]
  IC50: 1.67 µM

## Cn1c(CNc2cccc(C(=O)NCc3nccc(Cl)c3F)c2)nnc1-c1ccncn1
GRK2
  IC50: 220 nM
[1]
  IC50: < 0.039 µM

## Cn1cc(C(NC(=O)c2cccc(NCc3nnc(-c4ccncn4)n3C)c2)c2ccccc2)cn1 (centres unmarked)
GRK2
  IC50: 41 nM
[1]
  IC50: 0.0664 µM

## O=C(NCc1nccn1C(F)F)c1cccc(NCc2nnc(-c3ccncc3)[nH]2)c1
GRK2
  IC50: 14 nM
[1]
  IC50: 2.88 µM

## Cc1ccnc(CNC(=O)c2cccc(NCc3nnc(-c4ccncc4)[nH]3)c2)n1
GRK2
  IC50: 15 nM
[1]
  IC50: > 10 µM

## CC(C)n1nccc1CNC(=O)c1cccc(NCc2nnc(-c3ccncc3)[nH]2)c1
GRK2
  IC50: 20 nM
[1]
  IC50: > 10 µM

## O=C(NCc1cn[nH]c1C(F)F)c1cccc(NCc2nnc(-c3ccncc3)[nH]2)c1
GRK2
  IC50: 19 nM
[1]
  IC50: > 10 µM

## Cc1nc(C)c(CNC(=O)c2cccc(NCc3nnc(-c4ccncc4)[nH]3)c2)nc1C
GRK2
  IC50: 28 nM
[1]
  IC50: > 10 µM

## Cc1ncccc1CNC(=O)c1cccc(NCc2nnc(-c3ccncc3)[nH]2)c1
GRK2
  IC50: 19 nM
[1]
  IC50: > 10 µM

## O=C(NCc1nccc(C(F)F)n1)c1cccc(NCc2nnc(-c3ccncc3)[nH]2)c1
GRK2
  IC50: 27 nM
[1]
  IC50: > 10 µM

## CCn1ncc(Cl)c1CNC(=O)c1cccc(NCc2nnc(-c3ccncc3)[nH]2)c1
GRK2
  IC50: 12 nM
[1]
  IC50: 0.56 µM

## O=C(NCc1ccccc1-n1cncn1)c1cccc(NCc2nnc(-c3ccncc3)[nH]2)c1
GRK2
  IC50: 19 nM
[1]
  IC50: > 10 µM

## COc1cnccc1CNC(=O)c1cccc(NCc2nnc(-c3ccncc3)[nH]2)c1
GRK2
  IC50: 26 nM
[1]
  IC50: > 10 µM

## O=C(NC1(c2ccncn2)CC1)c1cccc(NCc2nnc(-c3ccncc3)[nH]2)c1
GRK2
  IC50: 13 nM
[1]
  IC50: > 10 µM

## CC(NC(=O)c1cccc(NCc2nnc(-c3ccncc3)[nH]2)c1)c1cnco1 (centres unmarked)
GRK2
  IC50: 24 nM
[1]
  IC50: > 10 µM

## Cc1cnc(C(C)NC(=O)c2cccc(NCc3nnc(-c4ccncc4)[nH]3)c2)o1 (centres unmarked)
GRK2
  IC50: 16 nM
[1]
  IC50: > 10 µM

## O=C(NCc1nnc2n1CCCC2)c1cccc(NCc2nnc(-c3ccncc3)[nH]2)c1
GRK2
  IC50: 48 nM
[1]
  IC50: > 10 µM

## O=C(NCc1ccncc1)c1cccc(NCc2nnc(-c3ccncc3)[nH]2)c1
GRK2
  IC50: 12 nM
[1]
  IC50: 5.72 µM

## CCc1nc(CNC(=O)c2cccc(NCc3nnc(-c4ccncc4)[nH]3)c2)c(C)o1
GRK2
  IC50: 8.4 nM
[1]
  IC50: 0.866 µM

## O=C(NCc1ncccn1)c1cccc(NCc2nnc(-c3ccncc3)[nH]2)c1
GRK2
  IC50: 17 nM
[1]
  IC50: > 10 µM

## O=C(NCc1ncco1)c1cccc(NCc2nnc(-c3ccncc3)[nH]2)c1
GRK2
  IC50: 25 nM
[1]
  IC50: > 10 µM

## CCn1nc(C)c(CNC(=O)c2cccc(NCc3nnc(-c4ccncc4)[nH]3)c2)n1
GRK2
  IC50: 18 nM
[1]
  IC50: 3.11 µM

## O=C(NCc1nncn1C1CC1)c1cccc(NCc2nnc(-c3ccncc3)[nH]2)c1
GRK2
  IC50: 45 nM
[1]
  IC50: > 10 µM

## COC[C@H](NC(=O)c1cccc(NCc2nnc(-c3ccncc3)[nH]2)c1)c1ccccn1
GRK2
  IC50: 11 nM
[1]
  IC50: 0.405 µM

## Cc1nnc(CNC(=O)c2cccc(NCc3nnc(-c4ccncc4)[nH]3)c2)n1C1CC1
GRK2
  IC50: 19 nM
[1]
  IC50: > 10 µM

## O=C(NCc1cncc(F)c1)c1cccc(NCc2nnc(-c3ccncc3)[nH]2)c1
GRK2
  IC50: 17 nM
[1]
  IC50: > 10 µM

## O=C(NCc1cncnc1)c1cccc(NCc2nnc(-c3ccncc3)[nH]2)c1
GRK2
  IC50: 34 nM
[1]
  IC50: > 10 µM

## Cc1noc(C)c1CNC(=O)c1cccc(NCc2nnc(-c3ccncc3)[nH]2)c1
GRK2
  IC50: 24 nM
[1]
  IC50: > 10 µM

## CC(C)n1cnnc1CNC(=O)c1cccc(NCc2nnc(-c3ccncc3)[nH]2)c1
GRK2
  IC50: 210 nM
[1]
  IC50: > 10 µM

## CC(NC(=O)c1cccc(NCc2nnc(-c3ccncc3)[nH]2)c1)c1ccon1 (centres unmarked)
GRK2
  IC50: 20 nM
[1]
  IC50: > 10 µM

## CC1CC(NC(=O)c2cccc(NCc3nnc(-c4ccncc4)[nH]3)c2)c2ncnn21 (centres unmarked)
GRK2
  IC50: 37 nM
[1]
  IC50: > 10 µM

## O=C(NC1CCCn2ncnc21)c1cccc(NCc2nnc(-c3ccncc3)[nH]2)c1 (centres unmarked)
GRK2
  IC50: 20 nM
[1]
  IC50: > 10 µM

## O=C(NC1CCCc2nccnc21)c1cccc(NCc2nnc(-c3ccncc3)[nH]2)c1 (centres unmarked)
GRK2
  IC50: 12 nM
[1]
  IC50: 0.736 µM

## O=C(NC(CO)c1ccccn1)c1cccc(NCc2nnc(-c3ccncc3)[nH]2)c1 (centres unmarked)
GRK2
  IC50: 20 nM
[1]
  IC50: > 10 µM

## Cc1ocnc1CNC(=O)c1cccc(NCc2nnc(-c3ccncc3)[nH]2)c1
GRK2
  IC50: 8.3 nM
[1]
  IC50: > 7.5 µM

## O=C(NCc1cnccn1)c1cccc(NCc2nnc(-c3ccncc3)[nH]2)c1
GRK2
  IC50: 25 nM
[1]
  IC50: > 10 µM

## Cn1c(CNc2cccc(C(=O)N[C@@H](CO)c3cc(F)ccc3F)c2)nnc1-c1ccncn1
GRK2
  IC50: 10 nM
[1]
  IC50: > 30 µM

## Cn1c(CNc2cccc(C(=O)NC(CO)c3ccc(F)cc3)c2)nnc1-c1ccncn1 (centres unmarked)
GRK2
  IC50: 14 nM
[1]
  IC50: > 30 µM

## Cc1cncc(CNC(=O)c2cccc(NCc3nnc(-c4ccncn4)n3C)c2)c1
GRK2
  IC50: 15 nM
[1]
  IC50: > 30 µM

## Cc1ccn2c(CNC(=O)c3cccc(NCc4nnc(-c5ccncn5)n4C)c3)nnc2c1
GRK2
  IC50: 14 nM
[1]
  IC50: > 30 µM

## CC(NC(=O)c1cccc(NCc2nnc(-c3ccncn3)n2C)c1)c1ccncc1 (centres unmarked)
GRK2
  IC50: 11 nM
[1]
  IC50: 2.15 µM

## Cc1nn(C)cc1CNC(=O)c1cccc(NCc2nnc(-c3ccncn3)n2C)c1
GRK2
  IC50: 19 nM
[1]
  IC50: 6.22 µM

## Cc1cc(CNC(=O)c2cccc(NCc3nnc(-c4ccncn4)n3C)c2)n(C)n1
GRK2
  IC50: 17 nM
[1]
  IC50: 4.15 µM

## CC(NC(=O)c1cccc(NCc2nnc(-c3ccncn3)n2C)c1)c1ccccn1 (centres unmarked)
GRK2
  IC50: 29 nM
[1]
  IC50: 0.522 µM

## Cn1ccc(CNC(=O)c2cccc(NCc3nnc(-c4ccncn4)n3C)c2)n1
GRK2
  IC50: 60 nM
[1]
  IC50: 1.29 µM

## Cn1c(CNc2cccc(C(=O)NCc3cc(Cl)ccn3)c2)nnc1-c1ccncn1
GRK2
  IC50: 45 nM
[1]
  IC50: > 30 µM
